The values below are quoted from earlier work in US11389451B2, “Metolazone emulsion formulation” (ACADEMIC PHARMACEUTICALS, INC., priority 2017, dated 2022).

For this data set the following is noted: background statement.

As to `Cc1ccccc1N1C(=O)c2cc(S(N)(=O)=O)c(Cl)cc2NC1C` (centres unmarked) [Metolazone], the solubility in lipids entry is “moderate to high” and the solubility in water entry is “low”.
